# Measurements from PubChem BioAssay (NCI).
# Several values for one entry are separate records, joined by “and”; a condition that tells them apart may be missing. Identical values can stand only once.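 In this assay, cells in 96-well plates receive the compound at five concentrations for 48 hours. Endpoints are linearly interpolated between the surrounding concentrations. Abbreviation: GI50, concentration required for 50% inhibition of growth. The concentration for full growth arrest is given as TGI.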
# System: MDA-MB-468 breast
# Test: DTP human tumour cell line panel, 48 h
Structure (SMILES),GI50,TGI
CN1CCN(CCCn2c3c(sc4ncccc43)c(=O)n3nnc(-c4ccccc4)c23)CC1,1.72 µM,3.25 µM
O=C(Nc1n[nH]c2cc(-c3ccc(F)cc3)ccc12)C1CC1,3.42 µM,> 16.2 µM
COC1C[C@H](O[C@@H]2C[C@H](O[C@@H]3C[C@H](O[C@@H]4C(=O)c5c(cc6cc(O[C@H]7C[C@@H](O[C@H]8C[C@@H](O)[C@H](O)C(C)O8)[C@H](O)C(C)O7)c(C)c(O)c6c5O)C[C@H]4C(OC)C(=O)[C@@H](O)[C@@H](C)O)OC(C)[C@H]3O)OC(C)[C@@H]2O)OC(C)[C@@H]1O (some centres not stated),0.109 µM,0.723 µM
COc1cccc(/C=C/C(=O)c2cc3c(N)c(C(=O)Nc4ccccc4)sc3nc2C)c1,0.906 µM,1.84 µM
c1ccc2c(c1)CCCc1nnc3nc4ccccc4n3c1-2,6.55 µM,74.7 µM
COc1cc2cc(C(=O)Nc3ccccc3)c(N)nc2cc1OC,21.9 µM,> 100 µM
O=C(Nc1c(Cl)cccc1Cl)Oc1cccc2cccnc12,2.91 µM,13.9 µM
O=C(/C=C/c1cc2ccccc2[nH]c1=O)c1ccc(O)cc1,2.12 µM,5.3 µM
CCN1C(=O)N(CC)C2C1NN=c1s/c(=C\c3ccc(Br)cc3)c(=O)n12 (configuration not stated),0.0697 µM,0.516 µM
CNC(=O)c1cc(Oc2ccc(NC(=O)Nc3ccc(Cl)c(C(F)(F)F)c3)cc2)ccn1,1.42 µM and 2.03 µM and 2.09 µM,7.91 µM and 8.05 µM and 7.7 µM
Nc1nc(N)c2c(n1)NC(c1ccc(Cl)cc1)C1CCc3ccccc3C1=N2 (configuration not stated),1.6 µM,14.5 µM
Fc1ccc(Nc2ccnc(N3CCN(c4ccnc5cc(Cl)ccc45)CC3)n2)cc1,2.41 µM,19.3 µM
O=C(Nc1ccc([N+](=O)[O-])cc1Cl)c1cc(Cl)ccc1O,0.121 µM and 0.26 µM,0.388 µM and 0.782 µM
Nc1cc2c3ccccc3ccc2c2ccccc12,> 100 µM,> 100 µM
Cn1cc(-c2[nH]c3cc(NC(=O)[C@H](N)C4CCCCC4)cc4c3c2C=NNC4=O)cn1,0.164 µM and 0.503 µM,0.827 µM and > 5.3 µM
Cc1ccccc1N=C(c1ccccc1)C1C(=O)c2ccccc2C1=O,6.22 µM,> 100 µM
C#Cc1cccc(NC(=O)C2CCCCN2C(=O)CCl)c1 (configuration not stated),11.2 µM,34.1 µM
Cc1cc(C(=O)NOCCO)c(Nc2ccc(I)cc2F)n(C)c1=O,> 10 µM and 68.2 µM,> 100 µM
COc1ccc(COc2ccc(Cc3cnc(N)nc3N)cc2OC)cc1,3.27 µM,19.6 µM
COc1cc(N2CCN(C(C)C)CC2)ccc1Nc1nc(Nc2ccc(F)cc2C(N)=O)c2cc[nH]c2n1,0.999 µM,5.49 µM
Cn1cc(-c2nc(-c3c[nH]c4ccccc34)cs2)c2cccnc21,0.252 µM,0.827 µM

Structure (SMILES),GI50,TGI
O=C(Nc1cccc(Cl)c1)Nc1cc(C(F)(F)F)ccc1Cl,1.99 µM,4.73 µM
CCCCCCCN(CCCCCCC)C(=N)c1ccc(OC)c2ccccc12,1.23 µM,2.81 µM
C[C@H]1O[C@@H](O[C@H]2[C@@H](O)C[C@H](O[C@H]3[C@@H](O)C[C@H](O[C@H]4CC[C@]5(C)C6CC[C@]7(C)[C@@H](C8=CC(=O)OC8)CC[C@]7(O)C6CC[C@@H]5C4)O[C@@H]3C)O[C@@H]2C)C[C@H](O)[C@@H]1O (some centres not stated),0.0667 µM,0.202 µM
COc1cc(/C=C/[N+](=O)[O-])cc(OC)c1,1.64 µM,3.53 µM
CC(=O)OCc1cc[c]([Hg][Cl])o1,1.5 µM,3.44 µM
Cc1c(-c2c(F)cc(C(N)=O)c3[nH]c4c(c23)CC[C@H](C(C)(C)O)C4)cccc1-n1c(=O)c2cccc(F)c2n(C)c1=O,3.06 µM,> 100 µM
O=C1NC(=O)/C(=C/c2ccc3nccc(-c4ccncc4)c3c2)S1,0.185 µM,1.17 µM
Cc1cccc(Nc2ncc(-c3ccccc3)o2)c1,7.05 µM,> 25 µM
O=C(COc1ccc(Cl)cc1Cl)NNc1ccc([N+](=O)[O-])cc1,37.5 µM,> 100 µM
O=c1[nH]c(=O)n(C2C[C@@H](O)[C@@H](CO)O2)cc1F (some centres not stated),0.0444 µM,36.3 µM
COc1ccc(CNCCN2C(=O)c3ccc4c5c(ccc(c35)C2=O)C(=O)N(CCNCc2ccc(OC)c(OC)c2OC)C4=O)c(OC)c1OC,0.0822 µM,0.164 µM
COc1cc2cc(Oc3ccc(NC(=O)c4cccc(C(F)(F)F)c4)cc3)c(C)nc2cc1OCCN1CCCCC1,14.1 µM,29.1 µM
c1ccc(OCC[P+](c2ccccc2)(c2ccccc2)c2ccccc2)cc1,0.152 µM,0.736 µM
O=[N+]([O-])c1ccc(NC(c2ccccc2)c2ccc3cccnc3c2O)cc1 (configuration not stated),0.363 µM,2.05 µM
COc1ccc(N2CCN(c3nc(-c4ccccn4)nc4sc5c(c34)CCCCCC5)CC2)cc1,4.11 µM,> 100 µM
COc1ccc(C2CC(=O)Nc3c2c(C)nn3-c2nc3ccccc3[nH]2)cc1OC (configuration not stated),3.09 µM,16.8 µM
CC1(/C=C/c2ccc(-c3ccccc3)cc2)CCn2cnc3ncnc(c32)N1O (configuration not stated),0.276 µM,0.872 µM
CS(=O)(=O)Nc1cc(-c2ccc3ncnc(Nc4ccc(OCc5ccccn5)c(Cl)c4)c3c2)cnc1Cl,0.156 µM,0.78 µM
Clc1ccc(Nc2nnc(COc3ccccc3)c3ccccc23)cc1,1.49 µM,7.62 µM
C=C1C(=O)O[C@H]2[C@H]1CC/C(COC(=O)NCCc1ccc(Br)cc1)=C\CC[C@@]1(C)O[C@@H]21,0.841 µM,2.47 µM
